Laboratory results published in patent US12630555B2, “Substituted pyrrolo[1,2-a]quinoxalin-4(5H)-ones as CX3CR1 antagonists” (Drexel University, priority 2017, dated 2026).
Several values for one entry are separate records, joined by “and”; a condition that tells them apart may be missing. Identical values can stand only once. Like-named read-outs stand apart in the source and are kept apart here.

Legend:
disseminated tumors [1] = experiment: Docetaxel alone or with Compound XXII in animals bearing disseminated tumors; format: in vivo
Description: Animals bearing disseminated tumors were treated with Docetaxel (2 mg/Kg, i.p., bis in 7 d.) either alone or in combination with Compound XXII (10 mg/Kg i.p., q12h) and compared to Compound XXII alone (FIGS. 11E-11G).

[2] = tested on: 4T-1 murine breast cancer cells; experiment: Model of tumor seeding: 4T-1 cells inoculated intracardially in Balb-C mice; format: in vivo; details: 10 mg/kg i.p. one hour before and 3 hours after inoculation
Description: Mice were sacrificed 24 hours post-injection.

MDA-231 cells [3] = experiment: Model of metastatic disease: one-week MDA-231 tumors, bioluminescence imaging; format: in vivo, mice
Description: (§1) One week after intracardiac injection, animals were randomly assigned to control and treated group and then imaged for tumors in the skeleton and soft-tissue organs. Vehicle or Compound XXII (10 mg/kg) were administered i.p. twice/day, for the entire duration of the study and animals were imaged weekly. Doxorubicin was purchased from LEK Laboratories (D5794), dissolved in PBS at 1 mg/ml and stored at −20° C. before use. All experiments were performed in agreement with NIH guidelines for the humane use of animals. The Drexel University College of Medicine Committee approved all protocols involving the use of animals for the Use and Care of Animals.
MDA-231 cells were stably transduced with the pLeGo-IG2-Luc2 vector. Prior to imaging, animals were injected i.p. with 150 mg/kg of D-luciferin (ViVoGlo, Promega) and anesthetized using 3% isoflurane. Animals were then transferred to the chamber of an IVIS Lumina XR (PerkinElmer) where they received 2% isoflurane throughout the image acquisition. Fifteen minutes after injection of the substrate, five-minute exposures of both dorsal and ventral views were obtained and quantification and analysis of bioluminescence was performed using the Living Image software.
To determine whether the pharmacologic targeting of CX3CR1 with Compound I would produce similar effects, mice were grafted with MDA-231 cells and at the first week post-IC injection were randomized and administered with either vehicle or 10 mg/Kg Compound I i.p. twice daily for three weeks, based on pharmacokinetics studies with this compound. Animals were imaged weekly before being euthanized, and treatment with Compound I led to a reduction in the number of tumor foci and overall tumor burden, at least as effectively as observed using CRISPRi (FIGS. 5A-5B).

MDA-231 cells [4] = experiment: Enumeration of CTCs in blood of tumor-bearing mice after mobilization with AMD-3100; format: in vivo; details: for mobilization of cancer cells (CTCs) into the blood: compound alone, tumor-bearing mice
Description: Blood was withdrawn by cardiac puncture. AMD-3100 was purchased from Selleckchem (S8030) dissolved in PBS at 1 mg/ml and at −20° C. before use. Tumor-bearing animals were anesthetized as described above and 200-250 μl of systemic blood was collected at the designated time points and transferred in K2EDTA tubes. Blood samples were placed on ice, diluted using a saline buffer (0.5% BSA, 2% EDTA in PBS) at a 1:8 ratio and then filtered through a 70 μm cell strainer immediately prior to achieve a label-free, microfluidic isolation of CTCs. For enumeration, the Captor® system (Clearbridge Biomedics, Singapore) was used, which allows visualization of individual CTCs trapped into crescent-shape microwells. Following complete flowing of the diluted blood, the CTChip® was transferred to the stage of an inverted fluorescent microscope and all trapped CTCs were counted. For the recovery of fully viable CTCs we used the ClearCell® FX system (Clearbridge Biomedics, Singapore), which employs the CTChip® FR1 to isolate cancer cells from blood cells based on size, deformability and inertia through a Dean Flow Fractionation process.
CTCs were lysed on the same microfluidic chip used for capture using an ice-cooled RNA lysis buffer (Norgen Bioteck Corp.). […] Genespecific primers and probe sets were purchased from Applied Biosystem.
Cancer cells in the blood are a dynamic pool that constantly fluctuates as cells enter circulation upon being dislodged from tumors, reseed additional sites or perish to anoikis if they fail to do so. This makes determining the time spent by cancer cells in the blood problematic. A major hurdle for these types of studies is the limited ability to monitor the timing of CTCs' entry into and egress from the blood during steady-state conditions. To circumvent these issues, cancer cells were acutely mobilized from tumors in the skeleton and soft-tissues in mice—above steady-state counts—and then thereafter the blood was sampled at specific intervals, reasoning that a time-dependent decline of the number of CTCs in the blood would result from cancer cells seeding back to tissues and dying in circulation. […] When spreading via the systemic circulation, cancer cells become susceptible to anoikis and extending the time spent in the blood increases the odds of incurring this form of apoptotic cell death.

MDA-231 cells [5] = experiment: Reseeding of CTCs to bone and lungs (GFP/CM-Dil double-labeled cells); format: in vivo, mice; details: AMD-3100 with Compound XXII 10 mg/Kg i.p. 1 hr prior and 3 hrs after; 12 or 24 hours
Description: The CellTracker™ CM-Dil (ThermoFisher Scientific) was diluted as 50 μg in 50 μl of DMSO to prepare a stock solution. Immediately before use, the stock solution was diluted with D-PBS to a 1 μM working solution. Cells were exposed to the working solution at 37° C. for 5 minutes and then at 4° C. for 15 minutes and then washed with PBS followed by F-12 cell culture medium.
Green-fluorescent MDA-231 cells were labeled with the cell-tracker CM-Dil, a widely validated red-fluorescent dye that, while being stably retained by non-dividing cells, is transferred to daughter cells upon mitosis and eventually becomes too diluted and undetectable in rapidly dividing cell populations. Based on these features, GFP/CM-Dil double-labeled cancer cells, when reseeding from established tumors would emit green fluorescence but lack red fluorescence, as the results of high proliferation during tumor growth and consequential dilution of the CM-Dil dye. Cancer cells that became dormant upon seeding different tissues following intracardiac injection would retain the CM-Dil dye, thereby emitting signals in both green and red fluorescent spectra (FIG. 9A). For these experiments, mice were grafted with double-labeled cancer cells in the left cardiac ventricle and allowed to develop tumors for two weeks. […]

disseminated tumors [6] = experiment: Additional metastatic lesions after AMD-3100 mobilization; format: in vivo, mice
Description: Complementary studies were conducted in mice harboring experimental metastases as detected at one week post-grafting, and left either untreated or treated at the second and third week with AMD-3100, alone or in combination with Compound XXII (FIG. 10B). All lesions identified at the fifth week that had not been previously detected at the second week of the experiment were counted and compared among treatment groups.

disseminated tumors [7] = format: in vivo
Description: as §1
Mice harboring 1-week disseminated tumors were treated with the anthracycline antibiotic Doxorubicin (5 mg/Kg, i.p., q.w.), alone or in combination with Compound XXII (10 mg/Kg, i.p., b.i.d.) for the entire duration of the study. […] When the effects on both number of tumors and tumor burden were examined. […] It could be argued that this lack of effect shown by the chemotherapeutic drug was likely attributable to the short length of treatment, shorter than common protocols used in oncology practice. […] The acute toxicity of Doxorubicin precluded longer experiments. In order to test whether retaining cancer cells in the blood circulation by targeting CX3CR1 could extend their exposure to chemotherapeutics, the fluorescent properties of Doxorubicin were utilized and the red-spectrum emitted fluorescence of CTCs was collected at steady state from mice harboring disseminated tumors which were treated with Doxorubicin (alone, one hour after or three hours prior to administration of Compound XXII). CTCs were collected—independently of the type of treatment—four hours after Doxorubicin administration.

in vivo = details: mouse, ip, 10 mg/kg
Description: (§2) Animals were then anesthetized as described above and 300 μl of blood samples were collected by cardiac puncture at the designated time points and transferred in K2EDTA tubes. Blood samples were placed on ice and tested after dilution.

[8] = tested on: MDA-231 human breast cancer cells; experiment: Model of tumor seeding: MDA-231 cells inoculated intracardially, DTCs in skeleton at 24 hours; details: for seeding of the skeleton by MDA-231 breast cancer cells: SCID mice, i.p. one hour before and 3 hours after inoculation (Compound XXII 10 mg/kg); for reduction in DTCs vs vehicle: 24 hours
Description: Female SCID mice (Taconic CB17-SCRF, ˜20 g body weight) were housed in a germfree barrier. At 6 weeks of age, mice were anesthetized with a mixture of ketamine (80 mg/kg) and xylazine (10 mg/kg). […] After intracardiac injection, the experimenter distributed each animal in unlabeled cages. Each cage was randomly assigned to different treatment groups by a second experimenter.
The dosing regimen was selected based on results from pharmacokinetic analyses. […] For the detection and enumeration of single cancer cells, the experimenter was not blinded but was assisted by the Nuance FX multiplex imaging software (see below). A fluorescence image was acquired for each tissue section analyzed, approximately 36 serial sections spanning the entire width of each knee-joint. The identification and enumeration of single cells was obtained by three different experimenters, including the Principal Investigator, and occasional discrepancies reconciled prior to compiling the final data.
Animal model of tumor seeding: SCID mice (Taconic CB17-SCRF, ˜25 g body weight) were housed in a germ-free barrier. At 6 weeks of age, mice were anesthetized with a mixture of ketamine (80 mg/kg) and xylazine (10 mg/kg). Tumor cells were delivered as a 100 μl suspension of serum-free culture medium by carefully accessing the left ventricle of the heart through the chest with an insulin syringe mounting a 30-gauge needle. […] Species- and class-matched irrelevant immunoglobulins (Rabbit IgG, 15 μg/ml, Jackson ImmunoResearch) or DMSO were used for the control groups. […] The dosing regimen was selected based on results from pharmacokinetic analyses. […] Blue-fluorescent beads, 10 μm-polystyrene in diameter (Invitrogen-Molecular Probes) were included in the injection medium and visualized by fluorescence microscopy to validate injection efficiency. Mice showing non-homogenous distribution of or lacking fluorescent beads in tissue sections of lungs and kidneys were removed from the study.
Soft-tissue organs were then placed either in 30% sucrose for cryoprotection or 1% paraformaldehyde for long-term storage. Bones were decalcified in 0.5M EDTA (Fisher Scientific) for 7 days followed by incubation in 30% sucrose. Tissues were maintained at 4° C. for all aforementioned steps and frozen in O.C.T. medium (Sakura Finetek) by placement over dry-ice chilled 2-methylbutane. Soft-tissue organs as well as knee joints (femora and tibiae) were processed to obtain serial frozen sections, 80 μm in thickness, using a Microm HM550 cryostat.
Fluorescent images of skeletal metastases were acquired using an Axio Scope.A1 microscope (Zeiss) connected to a Nuance Multispectral Imaging System (PerkinElmer). Digital images were analyzed and processed using the Nuance Software (v. 2.4). […]

[9] = Pharmacokinetic studies in mice, 10 mg/kg i.p.; details: 1 hour, vs 10 nM
Description: as §2

[10] = 10 mg/kg i.p. twice/day from one week post-inoculation, vs vehicle
[11] = Doxorubicin 5 mg/Kg q.w. in combination with Compound XXII 10 mg/Kg i.p. b.i.d.
[12] = Doxorubicin alone 5 mg/Kg i.p. q.w., two weeks
[13] = single dose 5 mg/kg, mice with 3-week tumors

Structure (SMILES): CC(=O)O[C@@]12CO[C@@H]1C[C@H](O)[C@@]1(C)C(=O)[C@H](O)C3=C(C)[C@@H](OC(=O)[C@H](O)[C@@H](NC(=O)OC(C)(C)C)c4ccccc4)C[C@@](O)([C@@H](OC(=O)c4ccccc4)[C@H]21)C3(C)C [docetaxel, reference compound]
- tumor growth (disseminated tumors [1]; docetaxel alone 2 mg/Kg i.p. bis in 7 d.): significantly suppressed tumor growth

Structure (SMILES): O=C1CN(CCCn2c(=O)c3cccn3c3ccccc32)CCN1c1ccc(Cl)cc1 [Compound XXII, 5-(3-(4-(4-chlorophenyl)-3-oxopiperazin-1-yl)propyl)pyrrolo[1,2-a]quinoxalin-4(5H)-one]
- seeding of the skeleton by 4T-1 breast cancer cells [2]: severely impaired
- overall tumor burden, % of the levels in the control group (MDA-231 cells [3]; 10 mg/kg i.p. twice/day from one week post-inoculation): below 50%
- number of tumors (tumor foci) (MDA-231 cells [3]; [10]): strongly reduced
- overall tumor burden (MDA-231 cells [3]; [10]): strongly reduced
- overall survival (MDA-231 cells [3]; 10 mg/kg i.p. twice/day, Kaplan-Meier, vs vehicle): increase in overall survival
- area under the curve of CTC counts vs time (MDA-231 cells [4]; AMD-3100 combined with Compound XXII, then Compound XXII alone twice/day): 731
- percentage of apoptotic CTCs (Bax/Bcl-2 ratio) vs AMD-3100 alone (MDA-231 cells [4]; AMD-3100 in combination with Compound XXII, CTCs collected at 12 and 24 hours): increased the percentage of apoptotic CTCs
- magnitude of increase in CTC counts vs AMD-3100 alone (MDA-231 cells [4]; Compound XXII co-administered with AMD-3100): more than two-fold higher
- mobilization of cancer cells (CTCs) into the blood (MDA-231 cells [4]): does not mobilize cancer cells back in the blood
- number of reseeded cancer cells in lung and knee-joints (MDA-231 cells [5]): dramatically reduced
- AMD-3100-induced increase of additional lesions (disseminated tumors [6]; AMD-3100 in combination with Compound XXII): ablated
- number of CTCs positive for intracellular Doxorubicin (disseminated tumors [7]; Compound XXII administered prior to Doxorubicin, CTCs collected four hours after Doxorubicin): significant increase
- anti-tumor effect compared with Doxorubicin (disseminated tumors [7]; Compound XXII alone 10 mg/Kg i.p. b.i.d., short period of time): superior anti-tumor effect than Doxorubicin
- containment of tumor numbers (disseminated tumors [7]; [11]): comparable to Compound XXII alone
- mitigation of tumor burden (disseminated tumors [7]; [11]): comparable to Compound XXII alone
- synergistic effects of combination (disseminated tumors [7]; Doxorubicin combined with Compound XXII): Synergistic effects were minimal
- tumor burden after one week of treatment vs Compound XXII alone (disseminated tumors [7]; Doxorubicin in combination with Compound XXII, 1 week): significantly superior effect
- overall efficacy for lowering total tumor burden (disseminated tumors [1]; Compound XXII alone 10 mg/Kg i.p. q12h, each time point): comparable to the current standard of care, docetaxel alone
- synergistic effects of combination (disseminated tumors [1]; Docetaxel with Compound XXII, especially after 11 days of treatment): Synergistic effects were observed
- concentration at 1 h (in vivo; plasma): ~200 ng/mL
- concentration at 6 h (in vivo; plasma): 60 ng/mL
- seeding of the skeleton by MDA-231 breast cancer cells [8]: severely impaired

Structure (SMILES): COc1cccc2c1C(=O)c1c(O)c3c(c(O)c1C2=O)C[C@@](O)(C(=O)CO)C[C@@H]3O[C@H]1C[C@H](N)[C@H](O)[C@H](C)O1 [Doxorubicin, reference compound]
- number of tumors vs control (disseminated tumors [7]; [12]): failed to show any significant effect
- tumor burden vs control (disseminated tumors [7]; [12]): failed to show any significant effect

Structure (SMILES): O=c1c2cccn2c2ccccc2n1CCCN1CCC(c2ccc(Cl)cc2)CC1 [Compound I, 5-(3-(4-(4-chlorophenyl)piperidin-1-yl)propyl)pyrrolo[1,2-a]quinoxalin-4(5H)-one]
- number of tumors (tumor foci) (MDA-231 cells [3]; [10]): reduction
- overall tumor burden (MDA-231 cells [3]; [10]): reduction
- concentration at 1 h (in vivo; in vivo): 89 ng/mL and 210 nM
- increase of blood level over lowest fully effective dose in vitro [9]: 20 fold
- reduction in DTCs vs vehicle ([8]; 10 mg/Kg i.p. twice, one hour prior and three hours after IC inoculation): approximately 60%
- reduction in DTCs vs vehicle ([8]; MDA-231 cells pre-incubated with 10 nM compound): approximately 60%

Structure (SMILES): c1cc(CN2CCCNCCNCCCNCC2)ccc1CN1CCCNCCNCCCNCC1 [AMD-3100, reference compound]
- area under the curve of CTC counts vs time (MDA-231 cells [4]; AMD-3100 alone): 345
- mobilization of cancer cells (CTCs) into the blood (MDA-231 cells [4]): rapid increase in the number of CTCs
- time of peak number of CTCs post-treatment (MDA-231 cells [4]; [13]): 3 h
- time of return of CTCs to steady-state counts (MDA-231 cells [4]; [13]): 48 h
- number of additional lesions vs untreated animals (disseminated tumors [6]; AMD-3100 alone at second and third week, lesions at fifth week): doubled number of additional lesions
- seeding of the skeleton by MDA-231 breast cancer cells [8]: unaffected
